From paper PMC10742508, “The Structure and Nucleotide-Binding Characteristics of Regulated Cystathionine β-Synthase Domain-Containing Pyrophosphatase without One Catalytic Domain” (International Journal of Molecular Sciences, 2023)

Key:
Format in all cases: binding
[1] = target: T1, ΔdhPPase (Desulfitobacterium hafniense, UniProt B8FP42, DEL425-544); experiment: isothermal titration calorimetry, single-site model; conditions: read-out: KN
T1 construct: gene Dhaf_1515
T1 sequence (B8FP42 1-423): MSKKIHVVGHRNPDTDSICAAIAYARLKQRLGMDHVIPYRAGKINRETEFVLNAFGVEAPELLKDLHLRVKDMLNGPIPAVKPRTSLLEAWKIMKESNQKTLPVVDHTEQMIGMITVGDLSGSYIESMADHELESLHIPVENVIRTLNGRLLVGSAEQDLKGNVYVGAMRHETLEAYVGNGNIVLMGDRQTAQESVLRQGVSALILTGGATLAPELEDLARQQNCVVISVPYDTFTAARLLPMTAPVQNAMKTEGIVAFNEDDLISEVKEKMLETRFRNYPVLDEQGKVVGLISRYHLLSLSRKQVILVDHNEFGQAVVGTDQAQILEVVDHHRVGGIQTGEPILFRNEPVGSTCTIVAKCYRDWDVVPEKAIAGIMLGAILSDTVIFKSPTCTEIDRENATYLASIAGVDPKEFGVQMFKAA
Excerpt: isothermal titration calorimetry, single-site model on ΔdhPPase

[2] = target: T2, CDC (separate regulatory part of dhPPase) (Desulfitobacterium hafniense, UniProt B8FP42); experiment: ThermoFluor, SYPRO Orange; conditions: 2 mM MgCl2, 0.1 mM CoCl2, 150 mM KCl, pH 7.2
T2 construct: gene Dhaf_1515; regulatory insert only (CBS1-DRTGG-CBS2)
Excerpt: ThermoFluor, SYPRO Orange on CDC (separate regulatory part of dhPPase)

[3] = target: T3, dhPPase (full-size CBS-PPase) (Desulfitobacterium hafniense, UniProt B8FP42); experiment: isothermal titration calorimetry, single-site model; conditions: read-out: KN
T3 construct: gene Dhaf_1515
T3 sequence (B8FP42 entry or part of it): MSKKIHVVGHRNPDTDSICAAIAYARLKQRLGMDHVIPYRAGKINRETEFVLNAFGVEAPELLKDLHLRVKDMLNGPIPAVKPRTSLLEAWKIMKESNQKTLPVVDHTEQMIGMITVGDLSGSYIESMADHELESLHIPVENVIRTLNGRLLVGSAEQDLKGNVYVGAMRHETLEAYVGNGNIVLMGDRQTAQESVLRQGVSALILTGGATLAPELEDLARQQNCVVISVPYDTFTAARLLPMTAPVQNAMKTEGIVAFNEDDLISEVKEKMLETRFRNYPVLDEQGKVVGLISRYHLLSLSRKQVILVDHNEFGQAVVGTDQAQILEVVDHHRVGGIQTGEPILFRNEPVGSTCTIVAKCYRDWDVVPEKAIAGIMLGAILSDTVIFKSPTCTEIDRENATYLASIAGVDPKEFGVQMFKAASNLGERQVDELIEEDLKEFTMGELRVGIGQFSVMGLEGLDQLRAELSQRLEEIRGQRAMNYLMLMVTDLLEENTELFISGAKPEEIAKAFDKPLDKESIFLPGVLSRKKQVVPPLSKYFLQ
Excerpt: isothermal titration calorimetry, single-site model on dhPPase (full-size CBS-PPase)

[4] = target: T4, ΔdhPPase (Desulfitobacterium hafniense, UniProt B8FP42); experiment: ThermoFluor, SYPRO Orange; conditions: 200 µM AMP, 2 mM MgCl2, 0.1 mM CoCl2, 150 mM KCl, pH 7.2; peak II = regulatory part
T4 construct: gene Dhaf_1515
T4 sequence (B8FP42 1-423): T1 sequence (B8FP42 1-423)
Excerpt: ThermoFluor, SYPRO Orange on ΔdhPPase

[5] = target: T3, dhPPase (full-size CBS-PPase); experiment: ThermoFluor, SYPRO Orange; conditions: 200 µM AMP, 2 mM MgCl2, 0.1 mM CoCl2, 150 mM KCl, pH 7.2; peak II = regulatory part
Excerpt: ThermoFluor, SYPRO Orange on dhPPase (full-size CBS-PPase)

Row | SMILES | Kd [1] [nM] | Tm, °C / CDC ([2]; 20 µM Ap4A) [°C] | Kd [3] [nM] | Tm, °C / ΔdhPPase [4] [°C] | Tm, °C / CDC ([2]; 200 µM AMP) [°C] | Tm, °C / dhPPase [5] [°C]
1 | Nc1ncnc2c1ncn2[C@@H]1O[C@H](COP(=O)(O)OP(=O)(O)OP(=O)(O)OP(=O)(O)OC[C@H]2O[C@@H](n3cnc4c(N)ncnc43)[C@H](O)[C@@H]2O)[C@@H](O)[C@H]1O [Ap4A] | < 10 | 61.5 | 10 to 100 | – | – | –
2 | Nc1ncnc2c1ncn2[C@@H]1O[C@H](COP(=O)(O)O)[C@@H](O)[C@H]1O [AMP] | – | – | – | 68.6 | 66.5 | 67.4
